Laboratory results reported in ChEMBL document CHEMBL5050844 (2019).

Assays:
Type in all cases: functional, T cell line
[1] = Induction of anti-CD3/CD28 antibodies-stimulated human T cell activation at 1 uM assessed fold increase in IL-2 secretion measured by ELISA assay
[2] = Induction of anti-CD3 antibodies-stimulated human T cell activation at 1 uM assessed fold increase in CD25 expression measured by ELISA assay; also: reference of the scale not given here
[3] = Induction of anti-CD3/CD28 antibodies-stimulated human T cell activation at 0.3 uM assessed fold increase in CD25 expression measured by ELISA assay
[4] = Induction of anti-CD3/CD28 antibodies-stimulated human T cell activation at 4 uM assessed fold increase in IL-2 secretion measured by ELISA assay
[5] = Induction of anti-CD3 antibodies-stimulated human T cell activation at 1 uM assessed fold increase in IL-2 secretion measured by ELISA assay; also: reference of the scale not given here
[6] = Induction of anti-CD3/CD28 antibodies-stimulated human T cell activation at 1 uM assessed fold increase in CD25 expression measured by ELISA assay
[7] = Induction of anti-CD3 antibodies-stimulated human T cell activation at 8 uM assessed fold increase in CD25 expression measured by ELISA assay; also: reference of the scale not given here
[8] = Induction of anti-CD3 antibodies-stimulated human T cell activation at 8 uM assessed fold increase in IL-2 secretion measured by ELISA assay; also: reference of the scale not given here
[9] = Induction of anti-CD3/CD28 antibodies-stimulated human T cell activation at 0.3 uM assessed fold increase in IL-2 secretion measured by ELISA assay
[10] = Induction of anti-CD3/CD28 antibodies-stimulated human T cell activation at 4 uM assessed fold increase in CD25 expression measured by ELISA assay

| SMILES | fold change (FC) [1] | fold change (FC) [2] | fold change (FC) [3] | fold change (FC) [4] | fold change (FC) [5] | fold change (FC) [6] | fold change (FC) [7] | fold change (FC) [8] | fold change (FC) [9] | fold change (FC) [10] |
| --- | --- | --- | --- | --- | --- | --- | --- | --- | --- | --- |
| Cn1cnnc1C[C@H](c1cccc(N2Cc3c(cccc3C(F)(F)F)C2=O)c1)C(F)(F)F | 1.01 | 0.601 | 1.01 | 1.01 | 0.051 | 1.01 | 0.801 | 0.101 | 1.01 | 1.01 |
| C[C@H](Sc1nncn1C)c1cccc(NC(=O)c2cc3ccccc3cn2)c1 | 1.01 | <=0.6 | 1.01 | 1.01 | <=0.05 | 1.01 | <=0.6 | 0.051 | 1.01 | 1.01 |
| Cn1cnnc1[C@H](F)[C@@](C)(F)c1cccc(N2Cc3c(cc(C4CC4)cc3C(F)(F)F)C2=O)c1 (single isomer, unassigned; 482) | 1.01 | 0.601 | 1.01 | 1.01 | 0.051 | 1.01 | 0.801 | 0.051 | <=1 | 1.01 |
| Cn1cnnc1C(F)(F)[C@@](C)(F)c1cccc(N2Cc3c(cc(CN4CC[C@H](F)C4)cc3C(F)(F)F)C2=O)c1 | <=1 | 0.601 | <=1 | 1.01 | 0.051 | <=1 | 0.801 | 0.051 | <=1 | 1.01 |
| C[C@H](Cc1nncn1C)c1cc(OC2COC2)nc(N2Cc3c(cccc3C(F)(F)F)C2=O)c1 | 1.01 | 0.601 | 1.01 | 1.01 | 0.101 | 1.01 | >=1.001 | >=0.201 | 1.01 | 1.31 |
| Cn1cnnc1C(F)(F)C(C)(F)c1cccc(N2Cc3c(cccc3C(F)(F)F)C2=O)c1 (racemic) | <=1 | 0.601 | 1.01 | 1.01 | >=0.201 | 1.01 | 0.601 | >=0.201 | <=1 | 1.01 |
| C[C@H](Cc1nncn1C1CC1)c1cccc(N2Cc3c(cccc3C(F)(F)F)C2=O)c1 | 1.01 | 0.601 | 1.01 | 1.01 | <=0.05 | 1.01 | 0.801 | <=0.05 | <=1 | 1.01 |
| Cc1conc1C[C@@H](C)c1cccc(N2Cc3c(cccc3C(F)(F)F)C2=O)c1 | <=1 | 0.601 | 1.01 | 1.01 | 0.051 | <=1 | 0.801 | 0.151 | <=1 | 1.01 |
| C[C@H](Cc1nncn1C)c1cccc(NC(=O)c2nc3c(C4CC4)cccc3[nH]2)c1 | 1.01 | 0.601 | 1.01 | 2.51 | 0.051 | 1.01 | 0.801 | >=0.201 | 1.01 | 1.01 |
| C[C@H](Cc1nncn1C)c1cccc(NC(=O)c2cc(C(=O)N3C[C@@H](O)[C@H](F)C3)ccn2)c1 | 1.01 | 0.601 | <=1 | 2.51 | 0.151 | 1.01 | 0.801 | >=0.201 | <=1 | 1.31 |
| C[C@H](Cc1nncn1C)c1cccc(NC(=O)c2cccc(S(C)(=O)=O)n2)c1 | 1.01 | <=0.6 | 1.01 | 2.51 | 0.051 | >=1.76 | <=0.6 | 0.051 | 1.01 | >=1.76 |
| C[C@H](Cc1nncn1C)c1cccc(N2Cc3c(cc(C4CC4)nc3C3CC3)C2=O)c1 | 1.01 | 0.601 | 1.01 | 5 | 0.051 | 1.01 | 0.801 | >=0.201 | 1.01 | >=1.76 |
| CNC(=O)COc1ccc2cnc(C(=O)Nc3cccc([C@H](C)Sc4nncn4C)c3)cc2c1 | 1.01 | <=0.6 | 1.01 | 1.01 | <=0.05 | 1.01 | 0.801 | <=0.05 | <=1 | 1.01 |
| CC(Cc1nncn1C)c1cc(N[C@@H]2CCOC2)nc(N2Cc3c(cccc3C(F)(F)F)C2=O)c1 (single isomer, unassigned) | 1.01 | 0.601 | <=1 | 1.01 | 0.051 | 1.01 | 0.801 | 0.101 | 1.01 | 1.01 |
| C[C@H](Sc1nncn1C)c1cccc(NC(=O)c2cccc(S(C)(=O)=O)n2)c1 | 1.01 | <=0.6 | 1.01 | 1.01 | <=0.05 | 1.01 | <=0.6 | <=0.05 | <=1 | 1.01 |
| Cn1cnnc1C(F)[C@](C)(F)c1cccc(N2Cc3c(cccc3C(F)(F)F)C2=O)c1 (single isomer, unassigned) | <=1 | <=0.6 | <=1 | <=1 | <=0.05 | <=1 | 0.601 | 0.051 | <=1 | 1.01 |
